According to patent US12522583B2, “Benzimidazole derivatives and aza-benzimidazole derivatives as Janus kinase 2 inhibitors and uses thereof” (Dana-Farber Cancer Institute, Inc., priority 2018, dated 2026):

Columns and labels:
JAK2 = JAK2 (Homo sapiens (Human), UniProt O60674); test: JAK2 Z-Lyte biochemical assay
Protocol: Example 3. JAK2 Z-Lyte Biochemical Assay of the Compounds of the Present Disclosure
The JAK2 Z-Lyte biochemical assay was performed according to manufacturer's instructions (Life Technologies).

MST1R = MST1R (Homo sapiens (Human), UniProt Q04912); test: KINOMEscan; type: binding; details: read-out: percent control
Text: (§1) Example 2. In Vitro Kinase Selectivity Profiling of the Compounds of the Present Disclosure

DMPK = DMPK (Homo sapiens (Human), UniProt Q09013); test: KINOMEscan; type: binding; details: read-out: percent control
Text: as §1

LTK = LTK (Homo sapiens (Human), UniProt P29376); test: KINOMEscan; type: binding; details: read-out: percent control
Text: as §1

GSK3A = GSK3A (Homo sapiens (Human), UniProt P49840); test: KINOMEscan; type: binding; details: read-out: percent control
Text: as §1

EGFR(G719C) = EGFR(G719C) (Homo sapiens (Human), UniProt P00533, G719C); test: KINOMEscan; type: binding; details: read-out: percent control
Text: as §1

ACVR1 = ACVR1 (Homo sapiens (Human), UniProt Q04771); test: KINOMEscan; type: binding; details: read-out: percent control
Text: as §1

DDR2 = DDR2 (Homo sapiens (Human), UniProt Q16832); test: KINOMEscan; type: binding; details: read-out: percent control
Text: as §1

CLK3 = CLK3 (Homo sapiens (Human), UniProt P49761); test: KINOMEscan; type: binding; details: read-out: percent control
Chain of CLK3 (P49761 whole entry): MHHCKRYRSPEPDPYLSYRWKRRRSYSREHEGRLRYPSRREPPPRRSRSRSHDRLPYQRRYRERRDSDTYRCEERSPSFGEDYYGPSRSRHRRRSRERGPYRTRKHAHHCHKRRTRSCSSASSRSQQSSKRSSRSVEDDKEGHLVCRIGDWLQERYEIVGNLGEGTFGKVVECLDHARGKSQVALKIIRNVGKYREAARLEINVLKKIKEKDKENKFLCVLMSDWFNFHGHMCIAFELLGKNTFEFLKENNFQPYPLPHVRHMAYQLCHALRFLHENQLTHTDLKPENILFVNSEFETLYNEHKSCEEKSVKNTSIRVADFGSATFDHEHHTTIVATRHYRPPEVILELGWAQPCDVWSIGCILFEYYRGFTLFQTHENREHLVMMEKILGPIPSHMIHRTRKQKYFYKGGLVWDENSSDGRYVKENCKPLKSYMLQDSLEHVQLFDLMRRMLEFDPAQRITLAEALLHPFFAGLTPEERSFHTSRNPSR
Text: as §1

JNK3 = JNK3 (Homo sapiens (Human), UniProt P53779); test: KINOMEscan; type: binding; details: read-out: percent control
Text: as §1

EGFR(L861Q) = EGFR(L861Q) (Homo sapiens (Human), UniProt P00533, L861Q); test: KINOMEscan; type: binding; details: read-out: percent control
Text: as §1

PIP5K2B = PIP5K2B (Homo sapiens (Human), UniProt P78356); test: KINOMEscan; type: binding; details: read-out: percent control
Text: as §1

PKN1 = PKN1 (Homo sapiens (Human), UniProt Q16512); test: KINOMEscan; type: binding; details: read-out: percent control
Text: as §1

ERK2 = ERK2 (Homo sapiens (Human), UniProt P28482); test: KINOMEscan; type: binding; details: read-out: percent control
Text: as §1

CAMK4 = CAMK4 (Homo sapiens (Human), UniProt Q16566); test: KINOMEscan; type: binding; details: read-out: percent control
Text: as §1

FLT3(D835H) = FLT3(D835H) (Homo sapiens (Human), UniProt P36888, D835H); test: KINOMEscan; type: binding; details: read-out: percent control
Text: as §1

MAP4K4 = MAP4K4 (Homo sapiens (Human), UniProt O95819); test: KINOMEscan; type: binding; details: read-out: percent control
Chain of MAP4K4 (O95819 whole entry): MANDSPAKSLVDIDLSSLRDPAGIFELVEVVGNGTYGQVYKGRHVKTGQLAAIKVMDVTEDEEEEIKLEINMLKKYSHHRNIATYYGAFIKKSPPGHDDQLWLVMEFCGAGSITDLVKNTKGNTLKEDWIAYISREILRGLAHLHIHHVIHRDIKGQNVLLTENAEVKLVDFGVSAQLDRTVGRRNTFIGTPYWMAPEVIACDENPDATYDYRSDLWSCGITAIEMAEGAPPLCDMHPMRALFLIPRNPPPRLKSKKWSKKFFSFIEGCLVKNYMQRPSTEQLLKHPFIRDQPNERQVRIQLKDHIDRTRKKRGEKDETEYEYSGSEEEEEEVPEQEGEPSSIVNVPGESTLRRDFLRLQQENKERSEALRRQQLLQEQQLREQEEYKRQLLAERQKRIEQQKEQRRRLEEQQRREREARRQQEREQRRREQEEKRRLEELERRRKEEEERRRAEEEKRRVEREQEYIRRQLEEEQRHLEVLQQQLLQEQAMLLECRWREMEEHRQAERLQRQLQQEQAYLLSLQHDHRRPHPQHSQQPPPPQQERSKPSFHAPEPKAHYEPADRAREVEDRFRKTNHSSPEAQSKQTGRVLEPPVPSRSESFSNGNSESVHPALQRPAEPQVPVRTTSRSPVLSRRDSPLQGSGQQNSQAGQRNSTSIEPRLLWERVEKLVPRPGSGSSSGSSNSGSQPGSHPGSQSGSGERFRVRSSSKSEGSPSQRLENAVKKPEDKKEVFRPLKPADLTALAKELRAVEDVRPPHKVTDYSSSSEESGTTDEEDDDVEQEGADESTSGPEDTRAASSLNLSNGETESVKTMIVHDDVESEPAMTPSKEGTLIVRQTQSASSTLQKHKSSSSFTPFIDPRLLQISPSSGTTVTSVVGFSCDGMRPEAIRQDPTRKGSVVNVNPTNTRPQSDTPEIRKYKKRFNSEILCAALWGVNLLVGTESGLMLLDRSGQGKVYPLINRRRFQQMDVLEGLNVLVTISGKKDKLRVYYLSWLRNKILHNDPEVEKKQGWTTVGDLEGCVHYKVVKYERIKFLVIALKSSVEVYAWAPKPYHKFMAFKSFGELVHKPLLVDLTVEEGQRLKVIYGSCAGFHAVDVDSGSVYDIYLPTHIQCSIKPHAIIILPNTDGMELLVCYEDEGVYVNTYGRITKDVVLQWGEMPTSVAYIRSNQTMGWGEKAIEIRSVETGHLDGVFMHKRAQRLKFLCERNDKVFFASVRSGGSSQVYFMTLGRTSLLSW
Text: as §1

CAMKK1 = CAMKK1 (Homo sapiens (Human), UniProt Q8N5S9); test: KINOMEscan; type: binding; details: read-out: percent control
Text: as §1

DAPK3 = DAPK3 (Homo sapiens (Human), UniProt O43293); test: KINOMEscan; type: binding; details: read-out: percent control
Text: as §1

DAPK1 = DAPK1 (Homo sapiens (Human), UniProt P53355); test: KINOMEscan; type: binding; details: read-out: percent control
Text: as §1

ABL1-phosphorylated = ABL1-phosphorylated (Homo sapiens (Human), UniProt P00519); test: KINOMEscan; type: binding; details: read-out: percent control
Text: as §1

EPHA4 = EPHA4 (Homo sapiens (Human), UniProt P54764); test: KINOMEscan; type: binding; details: read-out: percent control
Text: as §1

TNK1 = TNK1 (Homo sapiens (Human), UniProt Q13470); test: KINOMEscan; type: binding; details: read-out: percent control
Text: as §1

DRAK1 = DRAK1 (Homo sapiens (Human), UniProt Q9UEE5); test: KINOMEscan; type: binding; details: read-out: percent control
Text: as §1

PFTK1 = PFTK1 (Homo sapiens (Human), UniProt O94921); test: KINOMEscan; type: binding; details: read-out: percent control
Text: as §1

LATS2 = LATS2 (Homo sapiens (Human), UniProt Q9NRM7); test: KINOMEscan; type: binding; details: read-out: percent control
Chain of LATS2 (Q9NRM7 whole entry): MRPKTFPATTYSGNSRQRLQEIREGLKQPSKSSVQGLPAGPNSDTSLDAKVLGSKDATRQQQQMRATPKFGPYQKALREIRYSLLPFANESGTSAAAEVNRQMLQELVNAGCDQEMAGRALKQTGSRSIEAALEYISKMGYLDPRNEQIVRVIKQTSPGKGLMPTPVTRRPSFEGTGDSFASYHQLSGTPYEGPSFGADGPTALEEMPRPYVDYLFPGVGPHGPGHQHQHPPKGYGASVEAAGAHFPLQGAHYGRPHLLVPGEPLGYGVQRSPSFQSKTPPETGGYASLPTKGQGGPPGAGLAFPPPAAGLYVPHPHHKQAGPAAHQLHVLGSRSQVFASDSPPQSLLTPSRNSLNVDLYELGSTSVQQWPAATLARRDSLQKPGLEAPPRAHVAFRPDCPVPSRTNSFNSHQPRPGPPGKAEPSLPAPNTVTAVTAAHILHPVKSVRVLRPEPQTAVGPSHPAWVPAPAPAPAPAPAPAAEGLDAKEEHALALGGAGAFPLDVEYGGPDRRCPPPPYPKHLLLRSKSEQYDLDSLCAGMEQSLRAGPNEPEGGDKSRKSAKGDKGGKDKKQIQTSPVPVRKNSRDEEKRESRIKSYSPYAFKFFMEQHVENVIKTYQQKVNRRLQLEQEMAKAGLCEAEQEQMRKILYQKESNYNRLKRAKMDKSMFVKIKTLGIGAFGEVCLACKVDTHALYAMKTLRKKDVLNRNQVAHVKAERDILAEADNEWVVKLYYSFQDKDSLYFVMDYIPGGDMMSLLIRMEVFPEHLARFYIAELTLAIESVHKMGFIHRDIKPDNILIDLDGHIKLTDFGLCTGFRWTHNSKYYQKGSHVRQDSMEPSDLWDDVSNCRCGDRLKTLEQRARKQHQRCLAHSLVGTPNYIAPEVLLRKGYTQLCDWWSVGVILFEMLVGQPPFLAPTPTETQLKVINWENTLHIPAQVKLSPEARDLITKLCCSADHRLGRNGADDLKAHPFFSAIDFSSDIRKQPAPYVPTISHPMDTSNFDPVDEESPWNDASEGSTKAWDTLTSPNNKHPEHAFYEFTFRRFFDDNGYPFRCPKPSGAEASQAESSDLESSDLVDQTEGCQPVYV
Text: as §1

EGFR(L747-T751del, Sins) = test: KINOMEscan; type: binding; details: 1 μM
Text: as §1

PLK1 = PLK1 (Homo sapiens (Human), UniProt P53350); test: KINOMEscan; type: binding; details: read-out: percent control
Text: as §1

CDC2L1 = CDC2L1 (Homo sapiens (Human), UniProt P21127); test: KINOMEscan; type: binding; details: read-out: percent control
Chain of CDC2L1 (P21127 whole entry): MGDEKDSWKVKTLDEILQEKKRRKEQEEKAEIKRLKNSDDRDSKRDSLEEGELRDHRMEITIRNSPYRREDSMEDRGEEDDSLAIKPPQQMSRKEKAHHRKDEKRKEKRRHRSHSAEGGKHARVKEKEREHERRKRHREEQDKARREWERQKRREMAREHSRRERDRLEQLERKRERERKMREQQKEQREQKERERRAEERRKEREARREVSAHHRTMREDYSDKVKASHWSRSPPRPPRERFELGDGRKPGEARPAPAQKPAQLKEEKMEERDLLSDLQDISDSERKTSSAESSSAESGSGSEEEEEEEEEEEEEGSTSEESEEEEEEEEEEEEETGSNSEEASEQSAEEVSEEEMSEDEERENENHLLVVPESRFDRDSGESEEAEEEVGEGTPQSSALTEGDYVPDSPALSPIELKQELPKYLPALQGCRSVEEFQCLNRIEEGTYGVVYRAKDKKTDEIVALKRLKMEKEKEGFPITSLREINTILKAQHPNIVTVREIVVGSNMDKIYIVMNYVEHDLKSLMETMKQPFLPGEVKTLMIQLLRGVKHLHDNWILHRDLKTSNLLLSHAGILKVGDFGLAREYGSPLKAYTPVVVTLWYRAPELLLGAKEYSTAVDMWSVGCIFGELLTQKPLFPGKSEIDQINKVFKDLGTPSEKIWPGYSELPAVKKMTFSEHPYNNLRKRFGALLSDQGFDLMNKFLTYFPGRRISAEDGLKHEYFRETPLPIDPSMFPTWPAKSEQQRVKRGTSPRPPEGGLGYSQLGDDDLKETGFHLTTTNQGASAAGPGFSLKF
Text: as §1

IKK-alpha = IKK-alpha (Homo sapiens (Human), UniProt O15111); test: KINOMEscan; type: binding; details: read-out: percent control
Text: as §1

AXL = AXL (Homo sapiens (Human), UniProt P30530); test: KINOMEscan; type: binding; details: read-out: percent control
Text: as §1

PIK3CA(Q546K) = PIK3CA(Q546K) (Homo sapiens (Human), UniProt P42336, Q546K); test: KINOMEscan; type: binding; details: read-out: percent control
Text: as §1

PIK3CD = PIK3CD (Homo sapiens (Human), UniProt O00329); test: KINOMEscan; type: binding; details: read-out: percent control
Text: as §1

PRKG1 = PRKG1 (Homo sapiens (Human), UniProt Q13976); test: KINOMEscan; type: binding; details: read-out: percent control
Text: as §1

ERBB2 = ERBB2 (Homo sapiens (Human), UniProt P04626); test: KINOMEscan; type: binding; details: read-out: percent control
Chain of ERBB2 (P04626 23-1255): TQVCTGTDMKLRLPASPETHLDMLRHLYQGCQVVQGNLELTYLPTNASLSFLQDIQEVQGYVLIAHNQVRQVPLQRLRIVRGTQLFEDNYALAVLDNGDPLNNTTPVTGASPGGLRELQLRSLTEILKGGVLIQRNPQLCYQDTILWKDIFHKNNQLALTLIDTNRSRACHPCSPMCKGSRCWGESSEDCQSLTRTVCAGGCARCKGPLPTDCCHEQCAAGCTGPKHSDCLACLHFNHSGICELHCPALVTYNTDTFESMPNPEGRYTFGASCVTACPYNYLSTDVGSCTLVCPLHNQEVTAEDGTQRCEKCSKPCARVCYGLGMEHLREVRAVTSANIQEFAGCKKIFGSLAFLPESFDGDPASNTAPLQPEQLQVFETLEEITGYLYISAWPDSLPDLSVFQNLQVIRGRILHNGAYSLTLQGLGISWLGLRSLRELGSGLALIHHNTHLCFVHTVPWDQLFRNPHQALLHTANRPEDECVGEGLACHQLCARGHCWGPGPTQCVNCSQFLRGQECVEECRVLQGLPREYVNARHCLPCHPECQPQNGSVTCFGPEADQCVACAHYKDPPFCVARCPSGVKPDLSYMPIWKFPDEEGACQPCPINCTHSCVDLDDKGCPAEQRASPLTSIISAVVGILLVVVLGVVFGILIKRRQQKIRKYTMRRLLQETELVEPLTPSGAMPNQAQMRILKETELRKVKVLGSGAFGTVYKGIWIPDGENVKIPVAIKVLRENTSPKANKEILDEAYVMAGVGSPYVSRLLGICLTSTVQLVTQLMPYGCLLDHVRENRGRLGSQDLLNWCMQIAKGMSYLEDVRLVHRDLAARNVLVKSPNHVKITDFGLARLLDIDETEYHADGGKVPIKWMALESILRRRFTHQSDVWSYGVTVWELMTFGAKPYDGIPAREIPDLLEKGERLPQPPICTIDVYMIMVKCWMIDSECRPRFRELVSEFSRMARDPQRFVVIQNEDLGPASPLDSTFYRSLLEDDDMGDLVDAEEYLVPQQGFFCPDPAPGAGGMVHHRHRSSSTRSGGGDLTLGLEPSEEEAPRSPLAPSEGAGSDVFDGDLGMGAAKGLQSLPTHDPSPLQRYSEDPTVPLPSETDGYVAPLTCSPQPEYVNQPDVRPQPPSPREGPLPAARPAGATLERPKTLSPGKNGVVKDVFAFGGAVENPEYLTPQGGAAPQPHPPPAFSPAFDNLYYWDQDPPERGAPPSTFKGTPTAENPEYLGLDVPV
Text: as §1

CAMKK2 = CAMKK2 (Homo sapiens (Human), UniProt Q96RR4); test: KINOMEscan; type: binding; details: read-out: percent control
Text: as §1

MEK4 = MEK4 (Homo sapiens (Human), UniProt P45985); test: KINOMEscan; type: binding; details: read-out: percent control
Text: as §1

CDK7 = CDK7 (Homo sapiens (Human), UniProt P50613); test: KINOMEscan; type: binding; details: read-out: percent control
Text: as §1

AMPK-alpha1 = AMPK-alpha1 (Homo sapiens (Human), UniProt Q13131); test: KINOMEscan; type: binding; details: read-out: percent control
Text: as §1

IKK-beta = IKK-beta (Homo sapiens (Human), UniProt O14920); test: KINOMEscan; type: binding; details: read-out: percent control
Text: as §1

`CCN1CCN(Cc2ccc(Nc3nc4ccc(Oc5ccnc(NC(C)=O)c5)cc4n3C)cc2C(F)(F)F)CC1` [Compound I-2] gave an IC50 (JAK2) of 794 nM, a remaining binding at 1 µM (MST1R) of 80% and a remaining binding at 1 µM (DMPK) of 94%. It also gave a remaining binding at 1 µM (LTK) of 61%, a remaining binding at 1 µM (GSK3A) of 85% and a remaining binding at 1 µM (EGFR(G719C)) of 97%. It also gave a remaining binding at 1 µM (ACVR1) of 99%, a remaining binding at 1 µM (DDR2) of 0% and a remaining binding at 1 µM (CLK3) of 94%. The remaining binding at 1 µM (JNK3) was 100%, the remaining binding at 1 µM (EGFR(L861Q)) was 98% and the remaining binding at 1 µM (PIP5K2B) was 57%. For the same molecule, the remaining binding at 1 µM (PKN1) was 57%, the remaining binding at 1 µM (ERK2) was 95% and the remaining binding at 1 µM (CAMK4) was 98%. For the same molecule, the remaining binding at 1 µM (FLT3(D835H)) was 47%, the remaining binding at 1 µM (MAP4K4) was 100% and the remaining binding at 1 µM (CAMKK1) was 100%. It also gave a remaining binding at 1 µM (DAPK3) of 76%, a remaining binding at 1 µM (DAPK1) of 87% and a remaining binding at 1 µM (ABL1-phosphorylated) of 23%. It also gave a remaining binding at 1 µM (EPHA4) of 100%, a remaining binding at 1 µM (TNK1) of 76% and a remaining binding at 1 µM (DRAK1) of 100%. The remaining binding at 1 µM (PFTK1) was 94%, the remaining binding at 1 µM (LATS2) was 100% and the percent control (EGFR(L747-T751del, Sins)) was 98%. It also gave a remaining binding at 1 µM (PLK1) of 100%, a remaining binding at 1 µM (CDC2L1) of 0.1% and a remaining binding at 1 µM (IKK-alpha) of 100%. It also gave a remaining binding at 1 µM (AXL) of 86%, a remaining binding at 1 µM (PIK3CA(Q546K)) of 100% and a remaining binding at 1 µM (PIK3CD) of 72%. For the same molecule, the remaining binding at 1 µM (PRKG1) was 100%, the remaining binding at 1 µM (ERBB2) was 95% and the remaining binding at 1 µM (CAMKK2) was 100%. The remaining binding at 1 µM (MEK4) was 97%, the remaining binding at 1 µM (CDK7) was 45% and the remaining binding at 1 µM (AMPK-alpha1) was 93%. The remaining binding at 1 µM (IKK-beta) was 98%.

For `CCN1CCN(Cc2ccc(Nc3nc4ccc(Oc5ccnc(NC(C)=O)c5)c(C)c4n3C)cc2C(F)(F)F)CC1` [Compound I-6, N-(4-(2-(4-((4-ethylpiperazin-1-yl)methyl)-3-(trifluoromethyl)phenylamino)-1,7-dimethyl-1H-benzo[d]imidazol-6-yloxy)pyridin-2-yl)acetamide], the IC50 (JAK2) was 980 nM, the remaining binding at 1 µM (MST1R) was 83% and the remaining binding at 1 µM (DMPK) was 100%. The remaining binding at 1 µM (LTK) was 22%, the remaining binding at 1 µM (GSK3A) was 93% and the remaining binding at 1 µM (EGFR(G719C)) was 94%. It also gave a remaining binding at 1 µM (ACVR1) of 100%, a remaining binding at 1 µM (DDR2) of 0% and a remaining binding at 1 µM (CLK3) of 95%. It also gave a remaining binding at 1 µM (JNK3) of 77%, a remaining binding at 1 µM (EGFR(L861Q)) of 100% and a remaining binding at 1 µM (PIP5K2B) of 98%. It also gave a remaining binding at 1 µM (PKN1) of 100%, a remaining binding at 1 µM (ERK2) of 100% and a remaining binding at 1 µM (CAMK4) of 100%. The remaining binding at 1 µM (FLT3(D835H)) was 24%, the remaining binding at 1 µM (MAP4K4) was 93% and the remaining binding at 1 µM (CAMKK1) was 100%. It also gave a remaining binding at 1 µM (DAPK3) of 99%, a remaining binding at 1 µM (DAPK1) of 99% and a remaining binding at 1 µM (ABL1-phosphorylated) of 11%. The remaining binding at 1 µM (EPHA4) was 91%, the remaining binding at 1 µM (TNK1) was 82% and the remaining binding at 1 µM (DRAK1) was 99%. The remaining binding at 1 µM (PFTK1) was 61%, the remaining binding at 1 µM (LATS2) was 100% and the percent control (EGFR(L747-T751del, Sins)) was 100%. It also gave a remaining binding at 1 µM (PLK1) of 71%, a remaining binding at 1 µM (CDC2L1) of 0% and a remaining binding at 1 µM (IKK-alpha) of 75%. For the same molecule, the remaining binding at 1 µM (AXL) was 61%, the remaining binding at 1 µM (PIK3CA(Q546K)) was 75% and the remaining binding at 1 µM (PIK3CD) was 88%. For the same molecule, the remaining binding at 1 µM (PRKG1) was 98%, the remaining binding at 1 µM (ERBB2) was 100% and the remaining binding at 1 µM (CAMKK2) was 99%. The remaining binding at 1 µM (MEK4) was 91%, the remaining binding at 1 µM (CDK7) was 15% and the remaining binding at 1 µM (AMPK-alpha1) was 95%. For the same molecule, the remaining binding at 1 µM (IKK-beta) was 72%.
